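48-hour exposure; five concentrations; linearly interpolated endpoints. GI50 = concentration required for 50% inhibition of growth.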 Active and inactive are the calls of the source. Rule as the data show it: active = GI50 up to about 1.1 µM and inactive = higher.
Legend:
Assay in all cases: NCI anticancer screen, dose series, 48 h
[1] = tested on: 786-0
[2] = tested on: A549
[3] = tested on: BT-549
[4] = tested on: CCRF-CEM
[5] = tested on: DU-145
[6] = tested on: HOP-92
[7] = tested on: HT-29
[8] = tested on: KM12
[9] = tested on: MOLT-4
[10] = tested on: SF-268
[11] = tested on: SK-MEL-28
[12] = tested on: SK-MEL-5
[13] = tested on: SN12C
[14] = tested on: SNB-19
[15] = tested on: SR
[16] = tested on: SW-620
[17] = tested on: T47D
[18] = tested on: UO-31
[19] = tested on: CAKI-1

Row | SMILES | GI50 [1] | GI50 [2] | GI50 [3] | GI50 [4] | GI50 [5] | GI50 [6] | GI50 [7] | GI50 [8] | GI50 [9] | GI50 [10] | GI50 [11] | GI50 [12] | GI50 [13] | GI50 [14] | GI50 [15] | GI50 [16] | GI50 [17] | GI50 [18] | GI50 [19]
1 | Cc1nc(-c2cc3cc(Cl)ccc3oc2=O)cc2c1c(=O)oc1ccc(Cl)cc12 | > 100 µM (inactive) | > 100 µM (inactive) | > 100 µM (inactive) | > 100 µM (inactive) | > 100 µM (inactive) | > 100 µM (inactive) | > 100 µM (inactive) | > 100 µM (inactive) | > 100 µM (inactive) | > 100 µM (inactive) | > 100 µM (inactive) | > 100 µM (inactive) | > 100 µM (inactive) | > 100 µM (inactive) | > 100 µM (inactive) | > 100 µM (inactive) | > 100 µM (inactive) | > 100 µM (inactive) | 
2 | CCOC(=O)c1c(N2CCOCC2)[nH]c(=O)c(C(c2ccco2)c2c(O)c(C(=O)OCC)c(N3CCOCC3)[nH]c2=O)c1O | > 100 µM (inactive) | > 100 µM (inactive) | > 100 µM (inactive) | > 100 µM (inactive) | > 100 µM (inactive) | 80.9 µM (inactive) | > 100 µM (inactive) | > 100 µM (inactive) | > 100 µM (inactive) | > 100 µM (inactive) | > 100 µM (inactive) | > 100 µM (inactive) | > 100 µM (inactive) | > 100 µM (inactive) | > 100 µM (inactive) | > 100 µM (inactive) | > 100 µM (inactive) | > 100 µM (inactive) | > 100 µM (inactive)
3 | O=c1[nH]cnc2c1ncn2C1SC(CO)C(O)C1O (stereo unspecified) | > 100 µM (inactive) | > 100 µM (inactive) | > 100 µM (inactive) | > 100 µM (inactive) | > 100 µM (inactive) | > 100 µM (inactive) | > 100 µM (inactive) | > 100 µM (inactive) | > 100 µM (inactive) | > 100 µM (inactive) | > 100 µM (inactive) | > 100 µM (inactive) | > 100 µM (inactive) | > 100 µM (inactive) | > 100 µM (inactive) | > 100 µM (inactive) | > 100 µM (inactive) | > 100 µM (inactive) | > 100 µM (inactive)
4 | O=C(/C=C1\C[C@H]2C=Nc3ccccc3C(=O)N2C1)NCCCNC(=O)/C=C1\C[C@H]2C=Nc3ccccc3C(=O)N2C1 | 3.03 µM (inactive) | 21.1 µM (inactive) | 16.4 µM (inactive) |  | 18.5 µM (inactive) | 20 µM (inactive) | 16.4 µM (inactive) | 16 µM (inactive) | 2.62 µM (inactive) | 16.7 µM (inactive) | 18.9 µM (inactive) | 16.1 µM (inactive) | 18 µM (inactive) | 16.4 µM (inactive) | 2.11 µM (inactive) | 5.51 µM (inactive) | 16 µM (inactive) | 14.7 µM (inactive) | 13.3 µM (inactive)
5 | COC1C=COC2(C)Oc3c(C)c(O)c4c(c3C2=O)/C(=N/C2CCC(O)OC2C)C=C(NC(=O)/C(C)=C\C(=O)C2CC2C(O)C(C)C(O)C(C)C(OC(C)=O)C1C)C4=O (stereo unspecified) | 1.66 µM (inactive) | 3.48 µM (inactive) | 2.44 µM (inactive) | 0.474 µM (active) | 2.54 µM (inactive) | 2.07 µM (inactive) | 1.15 µM (inactive) | 2.84 µM (inactive) | 1.94 µM (inactive) | 2.97 µM (inactive) | 2.05 µM (inactive) | 1.95 µM (inactive) | 1.61 µM (inactive) | 3.47 µM (inactive) | 1.7 µM (inactive) | 1.88 µM (inactive) | 2.69 µM (inactive) | 2.52 µM (inactive) | 3.24 µM (inactive)
6 | Nc1cc2c3c(c1)Oc1cc(N)cc4c1C3c1c(cc(N)cc1O4)O2 | 25.3 µM (inactive) | 32.5 µM (inactive) | 15.2 µM (inactive) | 43.4 µM (inactive) | 3.03 µM (inactive) | 57.5 µM (inactive) | 25.3 µM (inactive) | 22.9 µM (inactive) | 39.6 µM (inactive) | 12.5 µM (inactive) | 47.3 µM (inactive) | 11.9 µM (inactive) | 16.7 µM (inactive) | 37.5 µM (inactive) | 15.5 µM (inactive) | 33.7 µM (inactive) | 20.7 µM (inactive) | 47.2 µM (inactive) | 14.4 µM (inactive)
7 | CC1C(NNc2ccccc2)Oc2cc3c(cc2C1c1ccccc1O)OCO3 (stereo unspecified) | 5.53 µM (inactive) | 2.93 µM (inactive) | 14.2 µM (inactive) | 1.4 µM (inactive) | 3.89 µM (inactive) | 13.5 µM (inactive) | 6.03 µM (inactive) | 0.741 µM (active) | 3.17 µM (inactive) | 12.2 µM (inactive) | 12.3 µM (inactive) | 11.6 µM (inactive) | 5.79 µM (inactive) | 14.3 µM (inactive) | 0.284 µM (active) | 13.7 µM (inactive) | 2.77 µM (inactive) | 1.59 µM (inactive) | 0.962 µM (active)

Reference: ChEMBL document CHEMBL1201862, “PubChem BioAssay data set” (2004)
